The values that follow come from US20220259593A1, “CONTROL OF MAMMALIAN GENE DOSAGE USING CRISPR” (The Regents of the University of California, priority 2019, published 2022).

For data set [1], the system named is K562 CRISPRi cells. The data set can be described thus: Perturb-seq pooled growth measurement (sgRNA counts, growth phenotype γ, relative activity). In kind it is cell-based, human. The settings on record: for gamma_day5 / gamma_day10: pooled growth phenotype γ of the Perturb-seq sgRNA; for gamma_day5: day 5, K562 CRISPRi cells; for gamma_day10: day 10, K562 CRISPRi cells; for relative_activity_day5: γ relative to perfectly matched sgRNA (_00) of the same gene, day 5; for Perturb-seq pooled growth sgRNA counts, d5 / Perturb-seq pooled growth sgRNA counts, d10 / Perturb-seq pooled growth sgRNA counts, T0: sequencing read counts; for Perturb-seq pooled growth sgRNA counts, d5: 5 days of growth (day seven after transduction); for Perturb-seq pooled growth sgRNA counts, d10: 10 days of growth (day twelve after transduction); for Perturb-seq pooled growth sgRNA counts, T0: T0 = day two after transduction. A digest of the protocol:
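sgRNA abundance was sequenced from genomic DNA of the same transduced population sampled on days two, seven and twelve. Phenotype γ compares normalized day seven and twelve counts with day two. Day-seven values (five days of growth) define relative sgRNA activity.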

Data set [2] concerns K562 CRISPRi cells. Described as above. It is filed as cell-based, human. The settings on record: γ relative to perfectly matched sgRNA (_00) of the same gene, day 10.

In the data set on K562 CRISPRi cells [1], “ALDOA_ + _30077139.23-P1P2_00 (guide GGTCACCAGGACCCCTTCTG; listed as DNA, chemistry not fully specified)” yielded a gamma_day5 of −0.4127, a gamma_day10 of −0.3665 and a relative_activity_day5 of 1. In the data set on K562 CRISPRi cells [2], this substance showed a relative_activity_day10 of 1.

For “ALDOA_ + _30077139.23-P1P2_06 (guide GGTCACCAGGATCCCTTCTG; listed as DNA, chemistry not fully specified)”, in the data set with K562 CRISPRi cells [1], the gamma_day5 was −0.3967, the gamma_day10 is recorded as −0.3485 and the relative_activity_day5 worked out at 0.9611. For the same substance, the relative_activity_day10 with K562 CRISPRi cells [2] turned out to be 0.951.

On to “ALDOA_ + _30077139.23-P1P2_07 (guide GGTCACCAGGCCCCCTTCTG; listed as DNA, chemistry not fully specified)”, for which, in the data set with K562 CRISPRi cells [1], the gamma_day5 is recorded as −0.3609, the gamma_day10 was −0.3351 and the relative_activity_day5 is reported as 0.8744. The substance also gave a relative_activity_day10 in the data set with K562 CRISPRi cells [2] of 0.9143.

In the data set on K562 CRISPRi cells [1], “ALDOA_ + _30077139.23-P1P2_13 (guide GGTCACCAGGACCCCTTTTG; listed as DNA, chemistry not fully specified)” gave a gamma_day5 of 0.01706, a gamma_day10 of −0.0002203 and a relative_activity_day5 of −0.04134. In addition, in the data set with K562 CRISPRi cells [2], the relative_activity_day10 is given as 0.0006011.

In the data set with K562 CRISPRi cells [1], “ALDOA_ + _30077139.23-P1P2_14 (guide GGTCACCAGGACCGCTTCTG; listed as DNA, chemistry not fully specified)” returned a gamma_day5 of −0.1752, a gamma_day10 of −0.1566 and a relative_activity_day5 of 0.4246. In the data set with K562 CRISPRi cells [2], this substance registered a relative_activity_day10 of 0.4274.

Take “ATP5E_ −_57607036.23-P1P2_00 (guide GGTGTCCAGGGGCACTCTGT; listed as DNA, chemistry not fully specified)”: in the data set with K562 CRISPRi cells [1], the gamma_day5 is −0.1769, the gamma_day10 is on record as −0.2247 and the relative_activity_day5 stood at 1. Further, in the data set with K562 CRISPRi cells [2], the relative_activity_day10 is on record as 1.

“ATP5E_ −_57607036.23-P1P2_01 (guide GGTGTCCTGGGGCACTCTGT; listed as DNA, chemistry not fully specified)”: in the data set with K562 CRISPRi cells [1], the gamma_day5 is recorded as −0.2097, the gamma_day10 is given as −0.2284 and the relative_activity_day5 is reported as 1.185. In the data set on K562 CRISPRi cells [2], this substance yielded a relative_activity_day10 of 1.016.

In the data set on K562 CRISPRi cells [1], “ATP5E_ −_57607036.23-P1P2_04 (guide GGTGTCCAGGAGCACTCTGT; listed as DNA, chemistry not fully specified)” yielded a gamma_day5 of −0.09793, a gamma_day10 of −0.1204 and a relative_activity_day5 of 0.5536. Further, in the data set on K562 CRISPRi cells [2], the relative_activity_day10 amounted to 0.5358.

Consider “ATP5E_ −_57607036.23-P1P2_14 (guide GGTGTCCAGGGGCACTGTGT; listed as DNA, chemistry not fully specified)”, for which, in the data set on K562 CRISPRi cells [1], the gamma_day5 is recorded as −0.01233, the gamma_day10 is listed as −0.03506 and the relative_activity_day5 amounted to 0.0697. The substance also returned a relative_activity_day10 in the data set with K562 CRISPRi cells [2] of 0.156.

In the data set on K562 CRISPRi cells [1], “ATP5E_ −_57607036.23-P1P2_16 (guide GGTGTCCAGGGGCGCTCTGT; listed as DNA, chemistry not fully specified)” came in with a gamma_day5 of −0.1616, a gamma_day10 of −0.1656 and a relative_activity_day5 of 0.9135. The substance also showed a relative_activity_day10 with K562 CRISPRi cells [2] of 0.7368.

Consider “BCR_ + _23523092.23-P1P2_00 (guide GCGCGCGGGGCCCGTCTCAG; listed as DNA, chemistry not fully specified)”, for which, in the data set on K562 CRISPRi cells [1], the gamma_day5 is on record as −0.8426, the gamma_day10 is on record as −0.5068 and the relative_activity_day5 is on record as 1. This substance also registered a relative_activity_day10 in the data set with K562 CRISPRi cells [2] of 1.

“BCR_ + _23523092.23-P1P2_04 (guide GCGCGCGGAGCCCGTCTCAG; listed as DNA, chemistry not fully specified)”: in the data set on K562 CRISPRi cells [1], the gamma_day5 is given as −0.7401, the gamma_day10 is −0.418 and the relative_activity_day5 was found to be 0.8783. In the data set on K562 CRISPRi cells [2], this substance came in with a relative_activity_day10 of 0.8249.

In the data set with K562 CRISPRi cells [1], “BCR_ + _23523092.23-P1P2_05 (guide GCGCGCGGCGCCCGTCTCAG; listed as DNA, chemistry not fully specified)” yielded a gamma_day5 of −0.3535, a gamma_day10 of −0.2247 and a relative_activity_day5 of 0.4196. In the data set with K562 CRISPRi cells [2], this substance gave a relative_activity_day10 of 0.4434.

On to “BCR_ + _23523092.23-P1P2_07 (guide GCGCGCGGGGCTCGTCTCAG; listed as DNA, chemistry not fully specified)”, for which, in the data set with K562 CRISPRi cells [1], the gamma_day5 was −0.8707, the gamma_day10 is on record as −0.4869 and the relative_activity_day5 was found to be 1.033. For the same substance, in the data set on K562 CRISPRi cells [2], the relative_activity_day10 stood at 0.9607.

In the data set with K562 CRISPRi cells [1], “BCR_ + _23523092.23-P1P2_13 (guide GCGCGCGGGGCCCATCTCAG; listed as DNA, chemistry not fully specified)” showed a gamma_day5 of −0.2183, a gamma_day10 of −0.1615 and a relative_activity_day5 of 0.2591. For the same substance, the relative_activity_day10 in the data set on K562 CRISPRi cells [2] stood at 0.3187.

In the case of “BCR_ + _23523092.23-P1P2_15 (guide GCGCGCGGGGCCCGTCGCAG; listed as DNA, chemistry not fully specified)”, in the data set on K562 CRISPRi cells [1], the gamma_day5 is −0.2314, the gamma_day10 is on record as −0.1773 and the relative_activity_day5 was found to be 0.2747. This substance had a relative_activity_day10 with K562 CRISPRi cells [2] of 0.3498.

In the data set with K562 CRISPRi cells [1], “CAD_ + _27440280.23-P1P2_00 (guide GGCTGGAGAGAAGCCGGGCG; listed as DNA, chemistry not fully specified)” returned a gamma_day5 of −0.7714, a gamma_day10 of −0.684 and a relative_activity_day5 of 1. In the data set on K562 CRISPRi cells [2], this substance yielded a relative_activity_day10 of 1.

Consider “CAD_ + _27440280.23-P1P2_03 (guide GGCTGGTGAGAAGCCGGGCG; listed as DNA, chemistry not fully specified)”, for which, in the data set on K562 CRISPRi cells [1], the gamma_day5 was −0.7687, the gamma_day10 is listed as −0.6267 and the relative_activity_day5 is given as 0.9965. In the data set with K562 CRISPRi cells [2], the relative_activity_day10 amounted to 0.9162.

In the data set on K562 CRISPRi cells [1], “CAD_ + _27440280.23-P1P2_06 (guide GGCTGGAGAGTAGCCGGGCG; listed as DNA, chemistry not fully specified)” returned a gamma_day5 of −0.3975, a gamma_day10 of −0.3141 and a relative_activity_day5 of 0.5153. The relative_activity_day10 in the data set with K562 CRISPRi cells [2] came out at 0.4592.

Regarding “non-targeting_00089: non-targeting negative control sgRNA, GGGGTGAGGGTCCAATTCGG, SEQ ID NO: 164 (listed as DNA, chemistry not fully specified) [reference compound]”, in the data set on K562 CRISPRi cells [1], the “Perturb-seq pooled growth sgRNA counts, d5” value was 27748; the “Perturb-seq pooled growth sgRNA counts, d10” value came to 44919; the “Perturb-seq pooled growth sgRNA counts, T0” value stood at 10841.

“non-targeting_00217: non-targeting negative control sgRNA, GTGAACTCAAAAATCCCGAC, SEQ ID NO: 165 (listed as DNA, chemistry not fully specified) [reference compound]”: in the data set with K562 CRISPRi cells [1], the “Perturb-seq pooled growth sgRNA counts, d5” value amounted to 25185; the “Perturb-seq pooled growth sgRNA counts, d10” value stood at 42962; the “Perturb-seq pooled growth sgRNA counts, T0” value came out at 10286.

Regarding “non-targeting_00283: non-targeting negative control sgRNA, GGGCCGACGGATAGGAGGGA, SEQ ID NO: 166 (listed as DNA, chemistry not fully specified) [reference compound]”, in the data set on K562 CRISPRi cells [1], the “Perturb-seq pooled growth sgRNA counts, d5” value is given as 18547; the “Perturb-seq pooled growth sgRNA counts, d10” value worked out at 27936; the “Perturb-seq pooled growth sgRNA counts, T0” value worked out at 8188.

For the substance “non-targeting_00406: non-targeting negative control sgRNA, GGCGCCGGACTGGACCTCGA, SEQ ID NO: 167 (listed as DNA, chemistry not fully specified) [reference compound]”, in the data set on K562 CRISPRi cells [1], the “Perturb-seq pooled growth sgRNA counts, d5” value is given as 24099; the “Perturb-seq pooled growth sgRNA counts, d10” value came out at 39839; the “Perturb-seq pooled growth sgRNA counts, T0” value came to 9974.

On to “non-targeting_00527: non-targeting negative control sgRNA, GTGGGAGCAGATCAAGACTC, SEQ ID NO: 168 (listed as DNA, chemistry not fully specified) [reference compound]”, for which, in the data set on K562 CRISPRi cells [1], the “Perturb-seq pooled growth sgRNA counts, d5” value is given as 16865; the “Perturb-seq pooled growth sgRNA counts, d10” value stood at 27634; the “Perturb-seq pooled growth sgRNA counts, T0” value stood at 6840.

Take “non-targeting_00802: non-targeting negative control sgRNA, GCACGACGCTCCGGCACGCG, SEQ ID NO: 169 (listed as DNA, chemistry not fully specified) [reference compound]”: in the data set on K562 CRISPRi cells [1], the “Perturb-seq pooled growth sgRNA counts, d5” value stood at 16759; the “Perturb-seq pooled growth sgRNA counts, d10” value was found to be 27842; the “Perturb-seq pooled growth sgRNA counts, T0” value is listed as 7096.

Consider “non-targeting_01040: non-targeting negative control sgRNA, GTACGGCATGGCGCACTGCG, SEQ ID NO: 170 (listed as DNA, chemistry not fully specified) [reference compound]”, for which, in the data set with K562 CRISPRi cells [1], the “Perturb-seq pooled growth sgRNA counts, d5” value turned out to be 0; the “Perturb-seq pooled growth sgRNA counts, d10” value worked out at 0; the “Perturb-seq pooled growth sgRNA counts, T0” value is given as 0.
